Laboratory results published in patent US8258114B2, “Modulation of glucose-6-phosphatase translocase expression” (Isis Pharmaceuticals, Inc., priority 2004, dated 2012).
Where two headings read alike, the source gives them in different places.

Assays:
[1] = tested on: glucose-6-phosphatase translocase mRNA; test: Target reduction in liver: rat dose-response study (Table 12); format: in vivo; conditions: Sprague-Dawley rats; for % Inhibition, target reduction in liver: three weeks
Protocol: (§1) Each treatment group was comprised of 4 animals.
At the end of the treatment period, animals were sacrificed and target reduction in liver was measured by real-time PCR as described in other examples herein. Results are shown in Table 12 as the average percent reduction in glucose-6-phosphatase translocase levels as compared to saline treated control.

[2] = Plasma glucose, cholesterol and triglycerides in normal Sprague-Dawley rats (Table 14); format: in vivo, rat; set-up: plasma GLUCOSE WK 0 / plasma GLUCOSE WK 3: unit not given beside the values
Protocol: as §1
To further assess the physiological effects resulting from inhibition of target mRNA, the rats were evaluated at the beginning (Wk 0) and at the end (Wk 3) of the treatment period for plasma glucose, plasma cholesterol, and plasma triglyceride levels. Triglycerides and cholesterol were measured by routine clinical analyzer instruments (e.g. Olympus Clinical Analyzer, Melville, N.Y.). Glucose levels were measured using a glucose analyzer, for example a YSI glucose analyzer (YSI Scientific, Yellow Springs, Ohio). Results are presented in Table 14 as the average level of plasma glucose, plasma cholesterol (CHOL), or plasma triglycerides (TRIG) measured per treatment group.

[3] = tested on: rat glucose-6-phosphatase translocase mRNA; test: Reduction of glucose-6-phosphatase translocase mRNA in liver or kidney of ZDF rats (Table 15); format: in vivo; conditions: for % Inhibition of glucose-6-phosphatase translocase, Kidney / % Inhibition of glucose-6-phosphatase translocase, Liver: alone or with rosiglitazone 3 mg/kg daily
Protocol: Saline-injected animals served as a control treatment group. At the end of the treatment period, animals were sacrificed and target reduction in liver and kidney were measured by real-time PCR as described in other examples herein. […] For example, the following primer-probe set was designed to hybridize to rat glucose-6-phosphatase translocase sequences cited in Table 1: Forward primer: [NT] (incorporated herein as SEQ ID NO: 339) Reverse primer: [NT] (incorporated herein as SEQ ID NO: 340) PCR probe: […] (incorporated herein as SEQ ID NO: 341), where FAM is the fluorescent dye and TAMRA is the quencher dye.

[4] = tested on: catalytic subunit of glucose-6-phosphatase (G6PC) mRNA; test: Reduction of catalytic subunit of glucose-6-phosphatase (G6PC) mRNA in liver or kidney of ZDF rats (Table 15); format: in vivo, rat; conditions: alone or with rosiglitazone 3 mg/kg daily
Protocol: (§2) Saline-injected animals served as a control treatment group.
At the end of the treatment period, animals were sacrificed and target reduction in liver and kidney were measured by real-time PCR as described in other examples herein. Also measured were reductions in the catalytic subunit of glucose-6-phosphatase (G6PC) using a primer-probe set designed to hybridize to that mRNA. For example, the following primer-probe set was designed to hybridize to rat glucose-6-phosphatase translocase sequences cited in Table 1:
Results for each treatment group are shown in Table 15 as the average percent reduction in glucose-6-phosphatase translocase levels or in G6PC as compared to saline treated control.

[5] = Plasma glucose levels of ZDF rats, alone or in combination with rosiglitazone (Table 16); format: in vivo, rat; conditions: alone or with Rosi
Protocol: as §2
(§3) Plasma glucose levels were evaluated at the beginning of the study (Wk 0), during the first week of treatment (Wk 1), during the third week of treatment (Wk 3), and during the fifth week of treatment (Wk 5).

aged Zucker fa/fa rats = test: as above; format: in vivo, rat
Protocol: as §2, §3

[6] = Plasma lipids (cholesterol, triglycerides, free fatty acids) in ZDF rats (Table 21); format: in vivo, rat
Protocol: as §2
To further assess the physiological effects resulting from inhibition of target mRNA with antisense oligonucleotide alone or in combination with rosiglitazone, the rats were evaluated throughout the treatment period for plasma free fatty acids, plasma cholesterol, and plasma triglyceride levels. Free fatty acids, triglycerides and cholesterol were measured by routine clinical analyzer instruments (e.g. Olympus Clinical Analyzer, Melville, N.Y.). Glucose levels were measured using a glucose analyzer, for example a YSI glucose analyzer (YSI Scientific, Yellow Springs, Ohio).

[7] = rat, in vivo
Protocol: For three weeks, male Sprague-Dawley rats were injected twice-weekly with doses of 12.5 mg/kg, 25 mg/kg, or 50 mg/kg of ISIS 145760, ISIS 359543, or ISIS 366228. Each treatment group was comprised of 4 animals. Animals which received twice weekly injections of saline served as controls.
Body weight was monitored throughout the study period. […] Tissue weights were also measured at the end of the study.

[8] = rat, in vivo; remark: listed apart in the source
[9] = rat, in vivo; remark: listed apart in the source
Protocol: (§4) Male Zucker fa/fa rats, about 17 to 18 weeks of age, purchased from Charles River Laboratories (Wilmington, Mass.), are maintained on a normal rodent diet. Animals are placed into treatment groups of 8 animals each. […] Another treatment group received the food-administered daily doses of 3 mg/kg of rosiglitazone alone. Saline-injected animals served as a control treatment group.
Also monitored throughout the study was body composition. Baseline body composition was measured by MRI prior to the start of treatment (BL). Body composition was also measured during week 3 (Wk 3) and during week 5 (Wk 5) of treatment.

[10] = rat, in vivo; remark: listed apart in the source
Protocol: Male Zucker fa/fa rats, about 17 to 18 weeks of age, purchased from Charles River Laboratories (Wilmington, Mass.), are maintained on a normal rodent diet. Animals are placed into treatment groups of 8 animals each. One treatment group was dosed subcutaneously twice weekly with 12.5 mg/kg of ISIS 366228 (SEQ ID NO: 203). Another treatment group was dosed twice weekly with 25 mg/kg of ISIS 366228. Other treatment groups were dosed with 12.5 mg/kg or 25 mg/kg ISIS 366228 twice weekly in combination with daily 3 mg/kg doses of rosiglitazone (Rosi) administered in powdered food. Another treatment group received the food-administered daily doses of 3 mg/kg of rosiglitazone alone. Saline-injected animals served as a control treatment group.
Tissue weights were also determined at the end of the study.

[11] = rat, in vivo; remark: listed apart in the source
Protocol: as §4
The liver transaminases, ALT and AST, were measured throughout the study.

[12] = ISIS 366228 12.5 mg/kg twice weekly
[13] = ISIS 366228 25 mg/kg twice weekly

## GTGCTTGGCGATGGTACTGA (chemistry not given here) [ISIS 366228]
[1]; 12.5 mg/kg twice weekly
  % Inhibition, target reduction in liver: 69%
[1]; 25 mg/kg twice weekly
  % Inhibition, target reduction in liver: 82%
[1]; 50 mg/kg twice weekly
  % Inhibition, target reduction in liver: 90%
[1]; 12.5 to 50 mg/kg
  target mRNA levels in rat liver (in words): effective in reducing target mRNA levels in rat liver in a dose-dependent manner
[2]; 12.5 mg/kg twice weekly, saline 58
  plasma cholesterol (CHOL) WK 3: 49
[2]; 12.5 mg/kg twice weekly, saline 69
  plasma triglycerides (TRIG) WK 0: 54
[2]; 12.5 mg/kg twice weekly, saline 74
  plasma cholesterol (CHOL) WK 0: 70
[2]; 12.5 mg/kg twice weekly, saline 135
  plasma GLUCOSE WK 0: 147
[2]; 12.5 mg/kg twice weekly, saline 139
  plasma GLUCOSE WK 3: 146
[2]; 12.5 mg/kg twice weekly, saline 140
  plasma triglycerides (TRIG) WK 3: 84
[2]; 25 mg/kg twice weekly
  plasma GLUCOSE WK 0: 148
  plasma GLUCOSE WK 3: 149
  plasma cholesterol (CHOL) WK 0: 93
  plasma cholesterol (CHOL) WK 3: 70
  plasma triglycerides (TRIG) WK 0: 56
  plasma triglycerides (TRIG) WK 3: 76
[2]; 50 mg/kg twice weekly
  plasma GLUCOSE WK 0: 137
  plasma GLUCOSE WK 3: 139
  plasma cholesterol (CHOL) WK 0: 76
  plasma cholesterol (CHOL) WK 3: 54
  plasma triglycerides (TRIG) WK 0: 65
  plasma triglycerides (TRIG) WK 3: 64
[2]; 12.5 to 50 mg/kg, three weeks
  plasma triglycerides (in words): prevented the increases in triglycerides observed in saline-treated animals
[3]
  glucose-6-phosphatase translocase levels in liver and kidney (in words): reduced glucose-6-phosphatase translocase levels in liver and kidney at both doses
[3]; [12]
  % Inhibition of glucose-6-phosphatase translocase, Kidney: 35%
  % Inhibition of glucose-6-phosphatase translocase, Liver: 40%
[3]; [13]
  % Inhibition of glucose-6-phosphatase translocase, Kidney: 46%
  % Inhibition of glucose-6-phosphatase translocase, Liver: 80%
[4]; [12]
  % Inhibition of G6PC, Kidney: 17%
  % Inhibition of G6PC, Liver: 39%
[4]; [13]
  % Inhibition of G6PC, Kidney: 33%
  % Inhibition of G6PC, Liver: 0%
[5]; ISIS 366228 12.5 mg/kg, Wk 0, saline 571
  Plasma glucose: 570 mg/dL
[5]; ISIS 366228 12.5 mg/kg, Wk 1, saline 549
  Plasma glucose: 549 mg/dL
[5]; ISIS 366228 12.5 mg/kg, Wk 3, saline 552
  Plasma glucose: 547 mg/dL
[5]; ISIS 366228 12.5 mg/kg, Wk 5, saline 536
  Plasma glucose: 532 mg/dL
[5]; ISIS 366228 25 mg/kg, Wk 0
  Plasma glucose: 569 mg/dL
[5]; ISIS 366228 25 mg/kg, Wk 1
  Plasma glucose: 542 mg/dL
[5]; ISIS 366228 25 mg/kg, Wk 3
  Plasma glucose: 507 mg/dL
[5]; ISIS 366228 25 mg/kg, Wk 5
  Plasma glucose: 488 mg/dL
Aged Zucker fa/fa rats
  plasma glucose over the course of the study (in words): caused reductions in plasma glucose
[6]; Wk 0, ISIS 366228 12.5 mg/kg
  plasma cholesterol (CHOL): 207 mg/dL
  plasma triglycerides (TRIG): 460 mg/dL
[6]; Wk 0, ISIS 366228 25 mg/kg
  plasma cholesterol (CHOL): 210 mg/dL
  plasma triglycerides (TRIG): 470 mg/dL
[6]; Wk 1, ISIS 366228 12.5 mg/kg
  plasma cholesterol (CHOL): 201 mg/dL
  plasma triglycerides (TRIG): 379 mg/dL
[6]; Wk 1, ISIS 366228 25 mg/kg
  plasma cholesterol (CHOL): 196 mg/dL
  plasma triglycerides (TRIG): 307 mg/dL
[6]; Wk 3, ISIS 366228 12.5 mg/kg
  plasma cholesterol (CHOL): 196 mg/dL
  plasma triglycerides (TRIG): 416 mg/dL
[6]; Wk 3, ISIS 366228 25 mg/kg
  plasma cholesterol (CHOL): 206 mg/dL
  plasma triglycerides (TRIG): 354 mg/dL
[6]; Wk 5, ISIS 366228 12.5 mg/kg
  plasma cholesterol (CHOL): 176 mg/dL
  plasma triglycerides (TRIG): 478 mg/dL
[6]; Wk 5, ISIS 366228 25 mg/kg
  plasma cholesterol (CHOL): 183 mg/dL
  plasma triglycerides (TRIG): 472 mg/dL
[6]; compared with saline or rosiglitazone alone
  plasma cholesterol (in words): prevented increases in plasma cholesterol
[7]; 12.5 mg/kg
  Fat weight: 1.6 grams
[7]; 25 mg/kg
  Fat weight: 1.5 grams
[7]; 50 mg/kg
  Fat weight: 1.1 grams
  Kidney weight: 3 grams
  Liver weight: 15 grams
  Spleen weight: 1.1 grams
[8]
  body weight (in words): did not cause increased body weight
[9]
  body fat percentage (in words): did not cause marked increases in body fat percentage
[10]
  renal enlargement (in words): renal enlargement associated with human glycogen storage disease type 1B is not observed
[10]; 12.5 mg/kg
  Fat pad weight: 7 grams
[10]; 25 mg/kg
  Fat pad weight: 6 grams
[11]
  liver transaminases ALT and AST (in words): reductions in levels of these indicators of liver function
